Measured values from patent US20240043403A1, “HETEROARYL CARBOXAMIDE COMPOUND” (Astellas Pharma Inc., priority 2020, published 2024).

Biological target: human recombinant DGK ξ (Homo sapiens (Human), UniProt Q13574)
Assay: Evaluation of DGK ξ inhibitory effect (ADP-Glo Kinase Assay)
Type: biochemical
Conditions: ADP-Glo luminescence
Description: Test Example 1. Evaluation of DGK ξ Inhibitory Effect
The inhibitory effect of a test compound on human recombinant DGK ξ (Cama Biosciences, Inc., 12-410-20N) was examined by the following method in which detection is performed with ADP-Glo™ Kinase Assay (Promega Corporation).
To a 384-well plate (Greiner Bio-One Co., Ltd.), 3 μL of a DGK ξ enzyme dissolved in an assay buffer (40 mM Tris-HCl pH 7.5, 10 mM MgCl2, 1 mM dithiothreitol (DTT) and 0.1 mg/mL bovine serum albumin (BSA)) (90 ng/mL) was added, and 3 μL of the test compound diluted with the same assay buffer was added so that an intended final concentration was obtained. The mixture was left standing at room temperature for 15 minutes, 3 μL of a substrate (150 μM 1-oleoyl-2-acetyl-sn-glycerol (Sigma-Aldrich Co. LLC), 480 μM phosphatidylserine (Avanti, Inc.) and 150 μM UltraPure-ATP (attached to ADP-Glo)) was then added, and the mixture was left standing at room temperature for 30 minutes to react. Thereafter, 3 μL of an ADP-Glo Reagent was added, and the mixture was left standing at room temperature for 40 minutes to stop the enzyme reaction. Further, 6 μL of a Kinase-Detection Reagent was added, the mixture was left standing at room temperature for 30 minutes, and the luminescence was then measured using ARVO X3 (PerkinElmer, Inc.). The half maximal inhibitory concentration (IC50) was calculated by Sigmoid-Emax model non-linear regression analysis, where the signal value in solvent treatment was set to 0% inhibition and the signal value without addition of the DGK ξ enzyme was set to 100% inhibition. […] In the table. Ex represents the number of each Example described below.

human recombinant DGK ξ, sequence (Q13574 whole entry): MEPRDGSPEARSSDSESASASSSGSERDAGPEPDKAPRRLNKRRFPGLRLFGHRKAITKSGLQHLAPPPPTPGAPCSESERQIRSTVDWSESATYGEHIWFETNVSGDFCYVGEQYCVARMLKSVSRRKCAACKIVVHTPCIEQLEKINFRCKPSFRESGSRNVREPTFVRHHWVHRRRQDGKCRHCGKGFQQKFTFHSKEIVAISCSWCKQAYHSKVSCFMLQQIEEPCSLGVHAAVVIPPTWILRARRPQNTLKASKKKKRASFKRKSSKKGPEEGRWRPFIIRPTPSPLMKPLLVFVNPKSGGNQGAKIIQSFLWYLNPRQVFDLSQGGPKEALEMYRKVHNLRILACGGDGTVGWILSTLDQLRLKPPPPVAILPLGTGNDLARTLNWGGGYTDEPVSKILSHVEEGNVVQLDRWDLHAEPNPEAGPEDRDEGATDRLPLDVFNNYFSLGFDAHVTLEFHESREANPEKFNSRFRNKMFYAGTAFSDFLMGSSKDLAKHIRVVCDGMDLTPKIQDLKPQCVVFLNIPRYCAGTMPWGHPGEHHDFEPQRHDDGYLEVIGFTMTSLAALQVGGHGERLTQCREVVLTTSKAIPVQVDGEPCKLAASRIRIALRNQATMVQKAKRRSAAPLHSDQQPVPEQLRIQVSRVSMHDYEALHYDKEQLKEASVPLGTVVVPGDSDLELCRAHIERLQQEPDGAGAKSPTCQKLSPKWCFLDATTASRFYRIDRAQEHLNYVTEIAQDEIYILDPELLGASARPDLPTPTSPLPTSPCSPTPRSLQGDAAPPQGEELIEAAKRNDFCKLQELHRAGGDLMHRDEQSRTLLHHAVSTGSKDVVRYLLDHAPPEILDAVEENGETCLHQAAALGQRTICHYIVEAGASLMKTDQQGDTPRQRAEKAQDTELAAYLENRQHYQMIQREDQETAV

SMILES | IC50 [nM]
Cc1cc(C(=O)Nc2ccc(Oc3ccccc3F)c(C(F)(F)F)c2N2CCC[C@@H](CN)C2)nn1-c1ccnnc1 [Example 37] | 23
NCCOc1cccc(-c2c(NC(=O)c3coc(-c4ccnnc4)n3)ccc(OC3CC3)c2C(F)(F)F)c1 [Example 65] | 22
CN1CCN(c2c(NC(=O)c3ccn(-c4ccnnc4)n3)ccc(OC3CCCC3)c2C(F)(F)F)C[C@@H]1CN [Example 40] | 5.2
NCCOc1cc(-c2c(NC(=O)c3ccn(-c4ccnnc4)n3)ccc(OC3CCC3)c2C(F)(F)F)ccn1 [Example 79] | 7.8
O=C(Nc1ccc(OC2CCC2)c(C(F)(F)F)c1-c1cnn(C2CCNCC2)c1)c1coc(-c2ccnnc2)n1 [Example 71] | 21
NCC1(F)CCCN(c2c(NC(=O)c3ccn(-c4ccnnc4)n3)ccc(Oc3ccccc3F)c2C(F)(F)F)C1 (stereo not shown) [Example 58] | 21
NCCOc1cc(-c2c(NC(=O)c3coc(-c4ccnnc4)n3)ccc(OC3CCC3)c2C(F)(F)F)ccn1 [Example 67] | 35
N[C@H]1CCN2CCN(c3c(NC(=O)c4ccn(-c5ccnnc5)n4)ccc(Oc4ccccc4F)c3C(F)(F)F)C[C@H]12 [Example 84] | 2.1
CNC[C@H]1CN(c2c(NC(=O)c3ccn(-c4ccnnc4)n3)ccc(Oc3ccccc3F)c2C(F)(F)F)CCN1C [Example 122, N-[4-(2-fluorophenoxy)-2-{(3S)-4-methyl-3-[(methylamino)methyl]piperazin1-yl}-3-(trifluoromethyl)phenyl]-1-(pyridazin-4-yl)-1H-pyrazole-3-carboxamide monobutanedioate] | 3.2
CNC[C@H]1CN(c2c(NC(=O)c3ccn(CC(F)F)n3)ccc(Oc3ccccc3Cl)c2C(F)(F)F)CCN1C [Example 24] | 36
N#Cc1ccccc1Oc1ccc(NC(=O)c2ccn(CC(F)F)n2)c(N2CCC[C@@H](CN)C2)c1C(F)(F)F [Example 32] | 100
CN1CCN(c2c(NC(=O)c3ccn(-c4ccnnc4)n3)ccc(Oc3ccccc3F)c2C(F)(F)F)C[C@@H]1CNC1CC1 [Example 89] | 27
CNC[C@H]1CN(c2c(NC(=O)c3coc(-c4ccnnc4)n3)ccc(Oc3ccc(F)cc3)c2C(F)(F)F)CCN1C [Example 102] | 210
O=C(Nc1ccc(Oc2ccccc2F)c(C(F)(F)F)c1N1CCC[C@@H](CNC2CC2)C1)c1ccn(CC(F)F)n1 [Example 10] | 93
CNC[C@H]1CN(c2c(NC(=O)c3ccn(CC(F)F)n3)cc(F)c(Oc3ccccc3)c2F)CCN1C [Example 107] | 220
Cc1cc(C(F)(F)F)n2nc(C(=O)Nc3ccc(Oc4ccccc4)c(C(F)(F)F)c3N3CCC[C@@H](CN)C3)cc2n1 [Example 111] | 280
CN1CCN(c2c(NC(=O)c3cccn(CC(F)F)c3=O)ccc(Oc3ccccc3F)c2C(F)(F)F)C[C@@H]1CN [Example 16] | 73
O=C(Nc1ccc(Oc2ccccc2F)c(C(F)(F)F)c1N1CCC[C@@H](CNC2CC2)C1)c1ccn(-c2ccnnc2)n1 [Example 36] | 55
CN1CCN(c2c(NC(=O)c3cccn(CC(F)F)c3=O)ccc(Oc3ccccc3Cl)c2C(F)(F)F)C[C@@H]1CN [Example 15] | 99
CN[C@@H]1CCN2CCN(c3c(NC(=O)c4coc(-c5ccnnc5)n4)ccc(Oc4ccccc4)c3C(F)(F)F)C[C@@H]12 [Example 76] | 7.6
NCCOc1cc(-c2c(NC(=O)c3coc(-c4ccnnc4)n3)ccc(OC3CC3)c2C(F)(F)F)ccn1 [Example 68] | 24
CNC[C@H]1CN(c2c(NC(=O)c3ccn(-c4ccnnc4)n3)ccc(C3=CCOCC3)c2C(F)(F)F)CCN1C [Example 50] | 55
O=C(Nc1ccc(OC2CC2)c(C(F)(F)F)c1-c1cnn(C2CCNCC2)c1)c1ccn(-c2ccnnc2)n1 [Example 72] | 62
CN1CCN(c2c(NC(=O)c3coc(-c4ccnnc4)n3)ccc(Oc3ccccc3F)c2C(F)(F)F)C[C@H]1CN [Example 55] | 12
Cc1cn(-c2ccnnc2)nc1C(=O)Nc1ccc(Oc2ccccc2F)c(C(F)(F)F)c1N1CCC[C@@H](CN)C1 [Example 39] | 39
NCCCn1cc(-c2c(NC(=O)c3ccn(-c4ccnnc4)n3)ccc(OC3CCC3)c2C(F)(F)F)cn1 [Example 74] | 16
CN1CCN(c2c(NC(=O)c3ccn(-c4ccnnc4)n3)ccc(Oc3ccccc3F)c2C(F)(F)F)C[C@H]1CN [Example 54] | 12
CN(C)C[C@H]1CN(c2c(NC(=O)c3coc(-c4ccnnc4)n3)ccc(Oc3ccccc3)c2C(F)(F)F)CCN1C [Example 116] | 44

SMILES | IC50 [nM]
CN1CCN(c2c(NC(=O)c3ccn(CC(F)F)n3)ccc(OC3CCC3)c2C(F)(F)F)C[C@@H]1CN [Example 17] | 190
NC[C@@H]1CCCN(c2c(NC(=O)c3ccn(C(F)F)n3)ccc(Oc3ccccc3)c2C(F)(F)F)C1 [Example 3] | 150
N[C@@H]1CCN2CCN(c3c(NC(=O)c4ccn(-c5ccnnc5)n4)ccc(Oc4ccccc4F)c3C(F)(F)F)C[C@@H]12 [Example 77] | 5.6
NC[C@@H]1CCCN(c2c(NC(=O)c3ccn(CC(F)F)n3)ccc(OC3CC3)c2C(F)(F)F)C1 [Example 5] | 330
CNC[C@H]1CN(c2c(NC(=O)c3ccn(CC(F)F)n3)ccc(Oc3ccccc3F)c2F)CCN1C [Example 25] | 73
CNC[C@H]1CN(c2c(NC(=O)c3ccn(-c4ccnnc4)n3)ccc(Oc3ccccc3F)c2Cl)CCN1C [Example 125] | 1.8
NCCCn1cc(-c2c(NC(=O)c3coc(-c4ccnnc4)n3)ccc(OC3CCC3)c2C(F)(F)F)cn1 [Example 73] | 43
CN1CCN(c2c(NC(=O)c3ccn(-c4ccnnc4)n3)ccc(Oc3ccccc3Cl)c2C(F)(F)F)C[C@@H]1CN [Example 46] | 3.1
Cc1cc(C(=O)Nc2ccc(Oc3ccccc3Cl)c(C(F)(F)F)c2N2CCC[C@@H](CN)C2)nn1-c1ccnnc1 [Example 91] | 25
CN1CCN(c2c(NC(=O)c3ccn(CC(F)F)n3)ccc(Oc3ccc(F)cc3F)c2C(F)(F)F)C[C@@H]1CN [Example 18] | 130
CN[C@@H]1CCN2CCN(c3c(NC(=O)c4ccn(-c5ccnnc5)n4)ccc(Oc4ccccc4F)c3C(F)(F)F)C[C@@H]12 [Example 78] | 1.3
CNC[C@H]1CN(c2c(NC(=O)c3coc(-c4ccnnc4)n3)ccc(-c3ccccc3F)c2C(F)(F)F)CCN1C [Example 60] | 27
CN(C)[C@@H]1CCN2CCN(c3c(NC(=O)c4coc(-c5ccnnc5)n4)ccc(Oc4ccccc4)c3C(F)(F)F)C[C@@H]12 [Example 115] | 7.9
NC[C@@H]1CCCN(c2c(NC(=O)c3ccn(CC(F)F)n3)ccc(Oc3ccccc3Cl)c2C(F)(F)F)C1 [Example 9] | 9.3
NC[C@@H]1CCCN(c2c(NC(=O)c3ccn(CC(F)(F)F)n3)ccc(Oc3ccccc3)c2C(F)(F)F)C1 [Example 109, N-{2-[(3S)-3-(aminomethyl)piperidin-1-yl]-4-phenoxy-3-(trifluoromethyl)phenyl}-1-(2,2,2-trifluoroethyl)-1H-pyrazole-3-carboxamide] | 110
CNC[C@H]1CN(c2c(NC(=O)c3coc(-c4ccnnc4)n3)ccc(OC3CCC3)c2C(F)(F)F)CCN1C [Example 100] | 60
CNC[C@@H]1CN(c2c(NC(=O)c3ccn(-c4ccnnc4)n3)ccc(Oc3ccccc3Cl)c2C(F)(F)F)CCN1C [Example 95] | 3.8
CNC[C@H]1CN(c2c(NC(=O)c3coc(-c4ccnnc4)n3)ccc(Oc3ccccc3)c2C(F)(F)F)CCN1C [Example 105] | 46
CN1CCN(c2c(NC(=O)c3coc(-c4ccnnc4)n3)ccc(Oc3ccc(F)cc3)c2C(F)(F)F)C[C@@H]1CN [Example 53] | 29
Cc1cc(C(=O)Nc2ccc(Oc3ccccc3)c(C(F)(F)F)c2N2CCC[C@@H](CN)C2)nn1-c1ccnnc1 [Example 35] | 45
CNC[C@H]1CN(c2c(NC(=O)c3ccn(CC(F)F)n3)ccc(C3CCCC3)c2C(F)(F)F)CCN1C [Example 14] | 150
CN1CCN(c2c(NC(=O)c3ccn(-c4ccnnc4)n3)ccc(Oc3ccccc3F)c2C(F)(F)F)C[C@@H]1CN [Example 38] | 4.1
NC[C@@H]1CCCN(c2c(NC(=O)c3coc(-c4ccnnc4)n3)ccc(-c3ccccc3F)c2C(F)(F)F)C1 [Example 42] | 150
CNC[C@@H]1CN(c2c(NC(=O)c3ccn(-c4ccnnc4)n3)ccc(Oc3ccccc3F)c2C(F)(F)F)CCN1C [Example 123, N-[4-(2-fluorophenoxy)-2-{(3R)-4-methyl-3-[(methylamino)methyl]piperazin1-yl}-3-(trifluoromethyl)phenyl]-1-(pyridazin-4-yl)-1H-pyrazole-3-carboxamide monobutanedioate] | 4
N[C@@H]1CCN2CCN(c3c(NC(=O)c4coc(-c5ccnnc5)n4)ccc(OC4CC4)c3C(F)(F)F)C[C@@H]12 [Example 81] | 110
CN1CCN(c2c(NC(=O)c3cccn(CC(F)F)c3=O)ccc(Oc3ccccc3F)c2C(F)(F)F)C[C@H]1CN [Example 21] | 1100
CNC[C@H]1CN(c2c(NC(=O)c3ccn(-c4ccnnc4)n3)ccc(Oc3ccc(F)cc3)c2C(F)(F)F)CCN1C [Example 101] | 69
